Assay results: ChEMBL document CHEMBL2074325, “The multidrug resistance protein 5 functions as an ATP-dependent export pump for cyclic nucleotides” (J Biol Chem, 2000)
Blank lines part the entries; values can stand above or below the compound they belong to.

How the values were obtained:
Assay type in all cases: functional, cell membranes, Membrane vesicle
Set-up in all cases: scale not given: the % may be the effect or the level left
MRP5 (ABCC5) [1] = target: T1, MRP5 (ABCC5) (Homo sapiens, UniProt O15440); assay: TP_TRANSPORTER: inhibition of cGMP uptake (cGMP: 5 uM, Zaprinast: 10 uM) in membrane vesicles from MRP5-expressing V79 cells; conditions: hamster, probe cGMP (5 uM), read-out: Activity
MRP5 (ABCC5) [2] = target: T1, MRP5 (ABCC5); assay: TP_TRANSPORTER: inhibition of cGMP uptake (cGMP: 5 uM, Fluorescein diacetate: 50 uM) in membrane vesicles from MRP5-expressing V79 cells; conditions: hamster, probe cGMP (5 uM), read-out: Activity
[3] = target: ATP-binding cassette sub-family C member 5 (Homo sapiens, UniProt O15440); assay: TP_TRANSPORTER: inhibition of cGMP uptake (cGMP: 5 uM, Probenecid: 50 uM) in membrane vesicles from MRP5-expressing V79 cells; conditions: hamster, v79, 50 µM
MRP5 (ABCC5) [4] = target: T1, MRP5 (ABCC5); assay: TP_TRANSPORTER: inhibition of cGMP uptake (cGMP: 5 uM, Trequinsin: 1 uM) in membrane vesicles from MRP5-expressing V79 cells; conditions: hamster, probe cGMP (5 uM), read-out: Activity
MRP5 (ABCC5) [5] = target: T1, MRP5 (ABCC5); assay: TP_TRANSPORTER: inhibition of cGMP uptake (cGMP: 5 uM, Sildenafil: 1 uM) in membrane vesicles from MRP5-expressing V79 cells; conditions: hamster, probe cGMP (5 uM), read-out: Activity

T1 sequence (O15440 whole entry): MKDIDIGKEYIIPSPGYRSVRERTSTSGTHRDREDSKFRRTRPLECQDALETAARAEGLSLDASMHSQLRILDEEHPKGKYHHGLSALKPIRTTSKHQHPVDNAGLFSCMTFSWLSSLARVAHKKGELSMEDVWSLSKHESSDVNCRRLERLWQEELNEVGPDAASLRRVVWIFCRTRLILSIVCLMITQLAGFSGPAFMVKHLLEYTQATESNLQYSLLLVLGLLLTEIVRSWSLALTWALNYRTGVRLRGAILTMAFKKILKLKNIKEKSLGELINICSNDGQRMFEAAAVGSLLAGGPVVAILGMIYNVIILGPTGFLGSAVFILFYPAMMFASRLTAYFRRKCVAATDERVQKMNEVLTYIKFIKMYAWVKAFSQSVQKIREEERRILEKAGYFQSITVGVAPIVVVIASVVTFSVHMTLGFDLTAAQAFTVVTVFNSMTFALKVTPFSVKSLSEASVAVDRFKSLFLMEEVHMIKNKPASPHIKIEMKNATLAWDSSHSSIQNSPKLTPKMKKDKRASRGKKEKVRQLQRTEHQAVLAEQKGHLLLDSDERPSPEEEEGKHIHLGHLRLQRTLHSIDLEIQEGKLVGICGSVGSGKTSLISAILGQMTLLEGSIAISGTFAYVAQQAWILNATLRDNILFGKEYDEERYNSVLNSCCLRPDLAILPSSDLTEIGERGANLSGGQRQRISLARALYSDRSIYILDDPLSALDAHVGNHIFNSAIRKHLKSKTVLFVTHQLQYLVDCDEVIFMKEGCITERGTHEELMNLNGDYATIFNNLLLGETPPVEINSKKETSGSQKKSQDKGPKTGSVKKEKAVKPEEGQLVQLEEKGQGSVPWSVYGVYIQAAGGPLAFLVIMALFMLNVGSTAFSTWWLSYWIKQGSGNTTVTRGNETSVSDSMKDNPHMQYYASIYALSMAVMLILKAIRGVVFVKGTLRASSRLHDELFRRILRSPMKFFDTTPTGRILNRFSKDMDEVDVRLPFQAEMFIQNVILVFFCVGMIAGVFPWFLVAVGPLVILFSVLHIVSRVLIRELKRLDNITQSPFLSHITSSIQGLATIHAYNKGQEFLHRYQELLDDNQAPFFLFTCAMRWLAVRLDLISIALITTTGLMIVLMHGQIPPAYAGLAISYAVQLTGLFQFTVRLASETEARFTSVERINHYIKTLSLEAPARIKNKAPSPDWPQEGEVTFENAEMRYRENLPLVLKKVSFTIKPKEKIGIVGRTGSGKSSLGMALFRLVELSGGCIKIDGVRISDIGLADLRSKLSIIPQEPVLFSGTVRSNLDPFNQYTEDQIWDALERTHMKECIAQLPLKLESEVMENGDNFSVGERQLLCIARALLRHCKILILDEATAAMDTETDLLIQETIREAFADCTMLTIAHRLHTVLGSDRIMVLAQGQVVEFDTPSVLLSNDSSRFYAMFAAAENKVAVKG
ATP-binding cassette sub-family C member 5, sequence (O15440 whole entry): as above

activity at 10 µM (MRP5 (ABCC5) [1]): 41%
Structure (SMILES): CCCOc1ccccc1-c1nc2nn[nH]c2c(=O)[nH]1 [ZAPRINAST]

activity at 50 µM (MRP5 (ABCC5) [2]): 49.2%
Structure (SMILES): CC(=O)Oc1ccc2c(c1)Oc1cc(OC(C)=O)ccc1C21OC(=O)c2ccccc21 [FLUORESCEIN DIACETATE]

Activity [3]: 31.7%
Structure (SMILES): CCCN(CCC)S(=O)(=O)c1ccc(C(=O)O)cc1 [PROBENECID]

activity at 1 µM (MRP5 (ABCC5) [4]): 26.2%
Structure (SMILES): COc1cc2c(cc1OC)-c1c/c(=N\c3c(C)cc(C)cc3C)n(C)c(=O)n1CC2 [TREQUINSIN]

activity at 1 µM (MRP5 (ABCC5) [5]): 22%
Structure (SMILES): CCCc1nn(C)c2c(=O)[nH]c(-c3cc(S(=O)(=O)N4CCN(C)CC4)ccc3OCC)nc12
